In test [1] the target is T1, human recombinant COX-2 (Homo sapiens, UniProt P35354).
T1 construct: purchased Cayman Chemical Company, Ann Arbor, MI, USA
T1 sequence (P35354 18-604): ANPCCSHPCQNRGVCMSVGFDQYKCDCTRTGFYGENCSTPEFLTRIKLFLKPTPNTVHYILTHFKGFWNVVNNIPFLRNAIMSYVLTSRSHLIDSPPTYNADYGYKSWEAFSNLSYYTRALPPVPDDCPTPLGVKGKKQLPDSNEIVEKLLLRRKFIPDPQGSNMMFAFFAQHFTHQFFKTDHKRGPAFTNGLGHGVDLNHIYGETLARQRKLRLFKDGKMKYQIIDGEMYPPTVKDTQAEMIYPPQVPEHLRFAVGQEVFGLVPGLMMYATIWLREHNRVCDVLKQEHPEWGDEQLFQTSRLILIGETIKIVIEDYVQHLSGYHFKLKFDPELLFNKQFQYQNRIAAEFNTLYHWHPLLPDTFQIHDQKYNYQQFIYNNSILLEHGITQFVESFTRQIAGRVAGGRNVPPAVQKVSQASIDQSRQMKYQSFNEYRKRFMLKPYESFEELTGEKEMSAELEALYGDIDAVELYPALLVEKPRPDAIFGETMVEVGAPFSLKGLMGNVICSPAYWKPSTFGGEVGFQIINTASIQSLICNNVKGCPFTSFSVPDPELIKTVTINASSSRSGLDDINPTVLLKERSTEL
Description: COX Fluorescent Inhibitor Screening Assay, COX-2. Type of test: biochemical. The procedure:
The COX inhibition activity against ovine COX-1 and human recombinant COX-2 was determined using the COX Fluorescent Inhibitor Screening Assay Kit (Cayman Chemical Company, Ann Arbor, MI, USA) according to the manufacturer’s instructions as reported.

The subject of test [2] is MC38 cells. Description: AnnV-FITC/PI double staining, flow cytometry. The class given is cell-based, murine. Particulars: IC50 concentration, 72 h. The procedure: (§1) For all flow cytometric analyses, MC38 cells were seeded overnight and then treated with the IC50 concentration of compound 3 for 72 h. The cells were harvested, washed, and stained according to the manufacturer’s instructions for each method. To determine whether the compound induces apoptosis, cells were double stained with AnnV-FITC and PI (15 μg mL^–1) for 15 min at RT in the dark. To detect caspase activity, cells were stained with the FITC-conjugated caspase inhibitor ApoStat for 30 min at [drawing 162] . To detect cell proliferation, MC38 cells were stained with CFSE (1 μM) for 10 min at [drawing 163] prior to seeding and then treated as previously described. To detect intracellular production of Reactive oxygen/nitrogen Species (ROS/RNS), MC38 cells were prestained with DHR 123 (1 [drawing 164] M) for 20 min at [drawing 165] , then seeded and exposed to an IC50 concentration of compound 3. After 72 h incubation, all samples were washed, resuspended in PBS and fluorescence intensity was analyzed using a CytoFLEX [drawing 166] flow cytometer (Beckman Coulter, Pasadena, CA, USA), while the data obtained was evaluated using the [drawing 167] software program.
A general note: Flow cytometry measures light scatter and fluorescence of single cells or particles in a stream.

Test [3] concerns human fetal lung fibroblast cell line MRC-5. Description: Viability of non-malignant MRC-5 cells. Type of test: cell-based. Particulars: column head not given. The procedure: The biological study was performed on a murine colon adenocarcinoma cell line (MC38), two human colorectal carcinoma cell lines (HCT116 and HT29), and a human fetal lung fibroblast cell line (MRC-5). All cell lines are commercially available and were obtained from the American Type Culture Collection (ATCC). The human cell lines were kept in HEPES-buffered RPMI-1640 medium supplemented with 10 [drawing 141] heat-inactivated FCS, 2 mM L-glutamine, 0.01 [drawing 142] sodium pyruvate, penicillin (100 units mL^−1), and, streptomycin ( [drawing 143] mL^-1). The MC38 cell line was maintained in DMEM medium additionally supplemented with 1 [drawing 144] non-essential amino acids. Cells were grown at [drawing 145] in a humidified atmosphere with 5 [drawing 146] [drawing 147] . Peritoneal exudate cells (PECs) were isolated from healthy C57BL/6 mice (males, n = 3, 3 months old, weight 22–25 g) by performing an ice-cold PBS peritoneal lavage. Mice were sacrificed by cervical dislocation. Cells were cultivated for 4 h when nonadherent population was removed by washing in PBS, and additionally cultivated overnight in HEPES-buffered RPMI-1640 medium supplemented with 5 [drawing 148] heat-inactivated FCS before treatment with experimental drugs. […]
After 72 h, cell viability was determined using MTT and CV tests. […] For both viability tests, the absorbance of the developed colors was measured using an automated microplate reader at 570 nm with a reference wavelength of 670 nm. The results were expressed as a percentage of the control values of the untreated cells, which were arbitrarily set at 100 [drawing 160] . IC50 values, defined as 50 [drawing 161] inhibitory concentration, were calculated using a four-parameter logistic function and presented as mean±SD. […] To evaluate the nature of the detected autophagy, a combined treatment with compound 3 and the autophagy inhibitors chloroquine (Chlq) and 3-methyladenine (3-MA) was carried out. […] After 72 h, cell viability was determined by CV assay.

The subject of test [4] is MC38 cells. Description: CFSE cell proliferation, flow cytometry. Type of test: cell-based, murine. Particulars: IC50 concentration, 72 h. As for the experimental part: as §1
For test [5], the system named is MC38 cells. Description: ApoStat caspase activity, flow cytometry. Type of test: cell-based, murine. The settings on record: IC50 concentration, 72 h. As for the experimental part:
as §1

The term IC50 denotes the point on the concentration scale where inhibition reaches its midpoint. On to “1-[2-(7,8-dicarba-nido-undecaborate)]- [drawing 126] H-indolium-2-amine [compound 3]”, for which the “%Inh. @ 100 μM (n = 2) COX-2” value in test [1] (100 μM) came to 105%. In test [1] (absolute IC50, 0.1 to 100 μM in duplicate, 95% CI in brackets), the IC50 amounted to 4.58 µM. In addition, the “COX inhibition, in words” value in test [1] (in vitro COX assay, COX-1 and COX-2) is reported as “moderately active COX-inhibitors”. The “SI1/2 = IC50(COX-1)/IC50(COX-2)” value in test [1] (selectivity index) came out at 3.3. Besides, the “apoptosis (AnnV-FITC/PI), in words” value in test [2] is “moderate apoptotic cell accumulation”. Moreover, the “Selectivity index (IC50 value of primary vs. cancer cells), MRC-5, second cancer cell line column” value in test [3] (presumably HCT116) was 1.5. In addition, in test [3] (presumably HT29), the “Selectivity index (IC50 value of primary vs. cancer cells), MRC-5, third cancer cell line column” value is given as 0.98. Besides, the “Selectivity index (IC50 value of primary vs. cancer cells), MRC-5, first cancer cell line column” value in test [3] (presumably MC38) is recorded as 1.81. Also, the “CFSE mean fluorescence intensity (undivided cell fraction)” value in test [4] is “significantly higher in comparison to controls”. In test [5], the “total caspase activity vs controls” value is recorded as “no significant change in total caspase activity”.

The values are drawn from PMC11649784, “Re-design and evaluation of diclofenac-based carborane-substituted prodrugs and their anti-cancer potential” (Scientific Reports, 2024).
